Values joined by “and” are separate entries in the source; they are usually repeats but may differ in a detail not shown here. Identical values can stand only once. After the bases stand the sugars from the 5' end (letter, count) and the backbone: PS all phosphorothioate, else s phosphorothioate and o phosphodiester by linkage. Methylation of C is not given here. e = 2'-O-(2-methoxyethyl) (MOE); k = constrained ethyl (cEt); d = 2'-deoxy (DNA)
Target: SOD1
Conditions: ASO

AGTGTTTAATGTTTAT (sugars ekddddddddekekee, linkages s1 o1 s8 o3 s2)
target mRNA inhibition (A431, 0.12 µM): 10%
target mRNA inhibition (A431, 0.6 µM): 22%
target mRNA inhibition (A431, 3 µM): 48%
target mRNA inhibition (A431, 15 µM): 77%

TGAACATGGAATCCATG (sugars e3 k2 d7 k2 e3, PS)
target mRNA inhibition (HepG2, 3 µM): 2%

GAGGATTAAAGTGAGGA (sugars e3 k2 d7 k2 e3, PS)
target mRNA inhibition (HepG2, 3 µM): 40%

GAATGACAAAGAAATTCTGA (sugars e5 d10 e5, PS)
target mRNA inhibition (HepG2, 5 µM): 0%

GCGCCTCGCCCACTCTGGCC (sugars e5 d10 e5, PS)
target mRNA inhibition (HepG2, 4 µM): 33%

GCCATACAGGGTTTTTA (sugars e3 k2 d7 k2 e3, PS)
target mRNA inhibition (HepG2, 3 µM): 11%

ATAACAGATGAGTTAAG (sugars e2 k2 d8 k2 e3, PS)
target mRNA inhibition (HepG2, 4 µM): 27%

ATTGATGATGCCCTGCACTG (sugars e5 d10 e5, PS)
target mRNA inhibition (HepG2, 4 µM): 8%

TAATGTTTATCAGGAT (sugars kekeddddddddekek, linkages s1 o3 s8 o1 s2)
target mRNA inhibition (A431, 0.12 µM): 0%
target mRNA inhibition (A431, 0.6 µM): 15%
target mRNA inhibition (A431, 3 µM): 17%
target mRNA inhibition (A431, 15 µM): 48%

ACAGGTCATTGAAACAG (sugars e3 k2 d7 k2 e3, PS)
target mRNA inhibition (HepG2, 3 µM): 14%

AAAGTGAGGACCTGCAC (sugars e3 k2 d7 k2 e3, PS)
target mRNA inhibition (HepG2, 3 µM): 20%

CTTCATCCTTTGGCCCA (sugars e3 k2 d7 k2 e3, PS)
target mRNA inhibition (HepG2, 3 µM): 35%

TAAGTGCCATACAGGGT (sugars e2 k2 d8 k2 e3, PS)
target mRNA inhibition (HepG2, 5 µM): 26%

TCTTCCAAGTGATCATA (sugars e2 k2 d8 k2 e3, PS)
target mRNA inhibition (HepG2, 5 µM): 33%

TCACACAATTACACTTT (sugars e2 k2 d9 k2 e2, PS)
target mRNA inhibition (HepG2, 5 µM): 39%

CATCTGCTTTTTCATGG (sugars e3 k2 d7 k2 e3, PS)
target mRNA inhibition (HepG2, 3 µM): 70%

GATACATTTCTACAGC (sugars kekeddddddddekek, linkages s1 o3 s8 o1 s2)
target mRNA inhibition (A431, 0.12 µM): 12%
target mRNA inhibition (A431, 0.6 µM): 22%
target mRNA inhibition (A431, 3 µM): 21%
target mRNA inhibition (A431, 15 µM): 34%
target mRNA inhibition (HepG2, 0.222 µM): 54%
target mRNA inhibition (HepG2, 0.667 µM): 78%
target mRNA inhibition (HepG2, 2 µM): 89%
target mRNA inhibition (HepG2, 6 µM): 96%

AGTGTTTAATGTTTATC (sugars e3 k2 d7 k2 e3, PS)
target mRNA inhibition (HepG2, 0.1875 µM): 52%
target mRNA inhibition (HepG2, 0.75 µM): 78%
target mRNA inhibition (HepG2, 3 µM): 67% and 86%
target mRNA inhibition (HepG2, 12 µM): 85%

TCTGACAAGTTTAATAC (sugars e2 k2 d9 k2 e2, PS)
target mRNA inhibition (HepG2, 5 µM): 20%

CTGCACTGGTACAGCCTGCT (sugars e5 d10 e5, PS)
target mRNA inhibition (HepG2, 5 µM): 38% and 29%

CGCCATAACTCGCTAGGCCA (sugars e5 d10 e5, PS)
target mRNA inhibition (HepG2, 4 µM): 59%

AATTTGGATTCTTTTAATAG (sugars e5 d10 e5, PS)
target mRNA inhibition (HepG2, 5 µM): 14%

CAAGTGATCATAAATCA (sugars e2 k2 d9 k2 e2, PS)
target mRNA inhibition (HepG2, 5 µM): 29%

CCAAGTGATCATAAATCAGT (sugars e5 d10 e5, PS)
target mRNA inhibition (HepG2, 5 µM): 39%

AAATACAGGTCATTGAA (sugars e2 k2 d9 k2 e2, PS)
target mRNA inhibition (HepG2, 5 µM): 47%

CGCGACTACTTTATAGG (sugars e3 k2 d7 k2 e3, PS)
target mRNA inhibition (HepG2, 3 µM): 11%

TACAGTGTTTAATGTTT (sugars e3 k2 d7 k2 e3, PS)
target mRNA inhibition (HepG2, 3 µM): 30%

TCTGTGATTTAAGTCTG (sugars e2 k2 d9 k2 e2, PS)
target mRNA inhibition (HepG2, 5 µM): 49%

ATCCAAGGGAATGTTTA (sugars e2 k2 d9 k2 e2, PS)
target mRNA inhibition (HepG2, 4 µM): 39%

GACTACATCCAAGGGAA (sugars e2 k2 d9 k2 e2, PS)
target mRNA inhibition (HepG2, 4 µM): 57%

TCCATTACTTTCCTTCT (sugars e3 k2 d7 k2 e3, PS)
target mRNA inhibition (HepG2, 3 µM): 18%

GTCTGGCAAAATACAGG (sugars e3 k2 d7 k2 e3, PS)
target mRNA inhibition (HepG2, 3 µM): 24%

TGCAACGGAAACCCCAGACG (sugars e5 d10 e5, PS)
target mRNA inhibition (HepG2, 4 µM): 21%

CTGCACTGGGCCGTCGCCCT (sugars e5 d10 e5, PS)
target mRNA inhibition (HepG2, 4 µM): 24%

ACTTTTAAGATTACAGTGTT (sugars e5 d10 e5, PS)
target mRNA inhibition (HepG2, 5 µM): 24%

TTATTCACAGGCTTGAA (sugars e2 k2 d9 k2 e2, PS)
target mRNA inhibition (HepG2, 5 µM): 30%

TTACAGTGTTTAATGTT (sugars e3 k2 d7 k2 e3, PS)
target mRNA inhibition (HepG2, 3 µM): 18%

AGGATAACAGATGAGTT (sugars e2 k2 d8 k2 e3, PS)
target mRNA inhibition (HepG2, 0.1875 µM): 30%
target mRNA inhibition (HepG2, 0.75 µM): 71%
target mRNA inhibition (HepG2, 3 µM): 87%
target mRNA inhibition (HepG2, 4 µM): 84%
target mRNA inhibition (HepG2, 12 µM): 95%

TTTTAAGATTACAGTGTTTA (sugars e5 d10 e5, PS)
target mRNA inhibition (HepG2, 5 µM): 13%

GCAAAATACAGGTCATT (sugars e3 k2 d7 k2 e3, PS)
target mRNA inhibition (HepG2, 3 µM): 43%

TAACAGATGAGTTAAGG (sugars e2 k2 d8 k2 e3, PS)
target mRNA inhibition (HepG2, 4 µM): 68%

GGATAGAGGATTAAAGT (sugars e3 k2 d7 k2 e3, PS)
target mRNA inhibition (HepG2, 3 µM): 14%

TAAGTCTGGCAAAATAC (sugars e3 k2 d7 k2 e3, PS)
target mRNA inhibition (HepG2, 3 µM): 4%

CTCAGACTACATCCAAG (sugars e3 k2 d7 k2 e3, PS)
target mRNA inhibition (HepG2, 0.1875 µM): 42%
target mRNA inhibition (HepG2, 0.75 µM): 72%
target mRNA inhibition (HepG2, 3 µM): 76% and 88%
target mRNA inhibition (HepG2, 12 µM): 90%

GACAAGTTTAATACCCA (sugars e2 k2 d9 k2 e2, PS)
target mRNA inhibition (HepG2, 5 µM): 59%

GAGATCACAGAATCTTC (sugars e3 k2 d7 k2 e3, PS)
target mRNA inhibition (HepG2, 3 µM): 13%

ATGAACATGGAATCCAT (sugars e3 k2 d7 k2 e3, PS)
target mRNA inhibition (HepG2, 3 µM): 8%

TGTGATTTAAGTCTGGCAAA (sugars e5 d10 e5, PS)
target mRNA inhibition (HepG2, 5 µM): 34%

TACATTTCTACAGCTA (sugars ekddddddddekekee, linkages s1 o1 s8 o3 s2)
target mRNA inhibition (A431, 0.12 µM): 37%
target mRNA inhibition (A431, 0.6 µM): 0%
target mRNA inhibition (A431, 3 µM): 22%
target mRNA inhibition (A431, 15 µM): 12%
target mRNA inhibition (HepG2, 0.222 µM): 36%
target mRNA inhibition (HepG2, 0.667 µM): 69%
target mRNA inhibition (HepG2, 2 µM): 83%
target mRNA inhibition (HepG2, 6 µM): 95%

CAGGGTTTTTATTCACA (sugars e3 k2 d7 k2 e3, PS)
target mRNA inhibition (HepG2, 3 µM): 17%

GGCGATCCCAATTACAC (sugars e3 k2 d7 k2 e3, PS)
target mRNA inhibition (HepG2, 3 µM): 9%

AGCCTCATAATAAGTGCCAT (sugars e5 d10 e5, PS)
target mRNA inhibition (HepG2, 5 µM): 6%

AGCCTCATAATAAGTGC (sugars e2 k2 d8 k2 e3, PS)
target mRNA inhibition (HepG2, 5 µM): 16%

TTTCTCACTACAGGTAC (sugars e2 k2 d9 k2 e2, PS)
target mRNA inhibition (HepG2, 5 µM): 45%

GTCATTGAAACAGACAT (sugars e2 k2 d9 k2 e2, PS)
target mRNA inhibition (HepG2, 5 µM): 15%

TTATTGGGCGATCCCAA (sugars e3 k2 d7 k2 e3, PS)
target mRNA inhibition (HepG2, 3 µM): 15%

GTGTTTAATGTTTATCA (sugars e3 k2 d7 k2 e3, PS)
target mRNA inhibition (HepG2, 3 µM): 37%

CAGGATACATTTCTACAGCT (sugars e5 d10 e5, linkages sososssssssssssosos)
target mRNA inhibition (A431, 0.062 µM): 20%
target mRNA inhibition (A431, 0.185 µM): 29%
target mRNA inhibition (A431, 0.556 µM): 49%
target mRNA inhibition (A431, 1.667 µM): 69%
target mRNA inhibition (A431, 5 µM): 76%
target mRNA inhibition (A431, 15 µM): 83%
target mRNA inhibition (SH-SY5Y, 0.062 µM): 0%
target mRNA inhibition (SH-SY5Y, 0.185 µM): 17%
target mRNA inhibition (SH-SY5Y, 0.556 µM): 39%
target mRNA inhibition (SH-SY5Y, 1.667 µM): 59%
target mRNA inhibition (SH-SY5Y, 5 µM): 85%
target mRNA inhibition (SH-SY5Y, 15 µM): 82%

AGTGATCATAAATCAGT (sugars e2 k2 d9 k2 e2, PS)
target mRNA inhibition (HepG2, 5 µM): 32%

TACAGTGTTTAATGTTTA (sugars e5 d8 e5, linkages s1 o3 s9 o2 s2)
target mRNA inhibition (A431, 0.12 µM): 3%
target mRNA inhibition (A431, 0.6 µM): 0%
target mRNA inhibition (A431, 3 µM): 1%
target mRNA inhibition (A431, 15 µM): 20%
target mRNA inhibition (HepG2, 0.222 µM): 13%
target mRNA inhibition (HepG2, 0.667 µM): 46%
target mRNA inhibition (HepG2, 2 µM): 70%
target mRNA inhibition (HepG2, 6 µM): 57%

ACCTGCACTGGTACAGCCTG (sugars e5 d10 e5, PS)
target mRNA inhibition (HepG2, 5 µM): 46% and 48%

TGGCAAAATACAGGTCA (sugars e2 k2 d9 k2 e2, PS)
target mRNA inhibition (HepG2, 5 µM): 43%

GTCGCCATAACTCGCTAGGC (sugars e5 d10 e5, PS)
target mRNA inhibition (HepG2, 0.1875 µM): 10%
target mRNA inhibition (HepG2, 0.75 µM): 21%
target mRNA inhibition (HepG2, 3 µM): 39%
target mRNA inhibition (HepG2, 4 µM): 40%
target mRNA inhibition (HepG2, 12 µM): 90%

CACACCTTCACTGGTCC (sugars e3 k2 d7 k2 e3, PS)
target mRNA inhibition (HepG2, 3 µM): 12%

TCTGCTCGAAATTGATG (sugars e3 k2 d7 k2 e3, PS)
target mRNA inhibition (HepG2, 3 µM): 34%

GGGCGATCCCAATTACA (sugars e2 k2 d8 k2 e3, PS)
target mRNA inhibition (HepG2, 4 µM): 30%

GGATACATTTCTACAGC (sugars e2 k2 d8 k2 e3, PS)
target mRNA inhibition (HepG2, 0.1875 µM): 4%
target mRNA inhibition (HepG2, 0.75 µM): 49%
target mRNA inhibition (HepG2, 3 µM): 72%
target mRNA inhibition (HepG2, 4 µM): 75%
target mRNA inhibition (HepG2, 12 µM): 87%

CCCATCTGTGATTTAAG (sugars e2 k2 d9 k2 e2, PS)
target mRNA inhibition (HepG2, 5 µM): 49%

ATCTGCTTTTTCATGGA (sugars e3 k2 d7 k2 e3, PS)
target mRNA inhibition (HepG2, 3 µM): 42%

GGGCGATCCCAATTACA (sugars e3 k2 d7 k2 e3, PS)
target mRNA inhibition (HepG2, 3 µM): 18%

CAGTCACATTGCCCAAGTCT (sugars e5 d10 e5, PS)
target mRNA inhibition (HepG2, 5 µM): 40% and 27%

GATCATAAATCAGTTTC (sugars e2 k2 d9 k2 e2, PS)
target mRNA inhibition (HepG2, 5 µM): 38%

AGTGTTTAATGTTTATC (sugars e2 k2 d8 e5, linkages s1 o2 s9 o2 s2)
target mRNA inhibition (A431, 0.062 µM): 16%
target mRNA inhibition (A431, 0.185 µM): 43%
target mRNA inhibition (A431, 0.556 µM): 65%
target mRNA inhibition (A431, 1.667 µM): 68%
target mRNA inhibition (A431, 5 µM): 79%
target mRNA inhibition (A431, 15 µM): 83%
target mRNA inhibition (SH-SY5Y, 0.062 µM): 33%
target mRNA inhibition (SH-SY5Y, 0.185 µM): 10%
target mRNA inhibition (SH-SY5Y, 0.556 µM): 43%
target mRNA inhibition (SH-SY5Y, 1.667 µM): 61%
target mRNA inhibition (SH-SY5Y, 5 µM): 81%
target mRNA inhibition (SH-SY5Y, 15 µM): 77%
